Measured values published in patent US20230265167A1, “COMPOSITIONS HAVING NEUROREGENERATIVE APPLICATIONS” (GRIFOLS WORLDWIDE OPERATIONS LIMITED, priority 2020, published 2023).

Experiments:
SH-SY5Y cells = experiment: Cell number / proliferation of SH-SY5Y cells by imaging; assay type: cell-based, human
Protocol: Undifferentiated SH-SY5Y cells were seeded into 96 well clear bottom plates in media containing 0.1% FBS. A serum-free base media was utilized as recommended by the supplier for SH-SY5Y cells (Sigma, Cat #94030304-1VL). Twenty-four hours after seeding cells, a 3× stock solution of ApoTf, final concentrations indicated on the x-axis, in serum free base media was added to the cells. ApoTf was obtained and purified from pooled human plasma and dosed at a final concentration of 0.2 mg/mL.
Cells were allowed to differentiate for 6 days. Neurite growth was assessed by imaging and image analysis. At the time of analysis, a 10× solution of Tubulin Tracker (Molecular Probes, T34075) and Hoechst 33342 (Molecular Probes #H3570) nuclear stain was prepared.
Briefly, Tubulin Tracker dissolved in DMSO was diluted 1:1 with Pluronic F-127 and further diluted into HBSS to generate a 10× solution. Hoechst 33342 was added to the HBSS-Tubulin Tracker solution at 10 μg/mL to generate a 10× nuclear stain. […]
After obtaining images, the MetaExpress Neurite Outgrowth analysis module (Molecular Devices) was used to identify cells, cell bodies, and quantify neurites. […] The Outgrowth Fold Change was determined by setting the untreated control cells to a value of 1 with all other treatments shown relative to untreated control.

[1] = Iron saturation by ICP-AES; assay type: physicochemical
From the text: The skilled person will appreciate that transferrin iron saturation levels can be readily determined without undue burden by quantifying the total iron levels in a sample having a known transferrin concentration. The total iron levels in sample can be measured by any one of a number of methods know by those of skill in the art. Suitable examples include: • Colorimetric assays—Iron is quantitated by measuring the intensity of the violet complex formed in the reaction between ferrozine and Fe^2+ in acetate buffer at 562 nm. Thiourea or other chemicals can be added to complex contaminant metals such Cu^2+, which can also bind with ferrozine and yield falsely elevated iron values. See Ceriotti et al., Improved direct specific determination of serum iron and total iron-binding capacity Clin Chem. 1980, 26(2), 327-31, the contents of which are incorporated herein by reference. • Inductively Coupled Plasma Atomic Emission Spectroscopy (ICP-AES)—is an emission spectroscopy technique that quantifies the mass percentage of metals in a sample. ICP-AES is based on the excitation of metal atoms/ions in the sample using a plasma (an ionized gas consisting of positive ions and free electrons) and analyzing the emission wavelength of the electromagnetic radiation, which is typical of that particular metal. Even though the technique is a standard analytical technique within common general knowledge of the skilled person, further information on ICP-AES can be found in Manley et al., Simultaneous Cu-, Fe-, and Zn-specific detection of metalloproteins contained in rabbit plasma by size-exclusion chromatography-inductively coupled plasma atomic emission spectroscopy. J Biol Inorg Chem. 2009, 14, 61-74, the contents of which are incorporated herein by reference.
The preferred method of determining the iron content of a sample for the purposes of the therapeutic method of the present invention is ICP-AES. The iron saturation of transferrin is then calculated based on the transferrin protein concentration, total iron content of the sample, and the fact that wild type transferrin has two iron-binding sites. Wild type human transferrin (molecular weight 79,750) can bind two iron atoms such that a sample containing 1 g of transferrin would be 100% saturated by 1.4 mg of iron.
Protein purity was determined by SDS-PAGE. Iron saturation levels were determined using ICP-AES in accordance with the procedures outlined in Manley et al., J Biol Inorg Chem (2009) 14:61-74, the contents of which are incorporated herein by reference.

[2] = system: C57BL/6J mice with transient MCAo; experiment: Novel object recognition test (NORT) after transient MCAo; assay type: in vivo, mouse; conditions: FIG. 10C, at least two weeks, vs saline
Protocol: C57BL/6J mice (ca. 20 g) were anaesthetized under isoflurane and, after dissection, a 6.0 silicon-coated monofilament suture was inserted into the external carotid artery to occlude the middle cerebral artery (MCAo). The occlusion was carried out for 60 minutes under temperature control.
Only animals with a ‘neuroscore’ of 4 or greater were considered for further testing (n=8-10 animals/group). At six hours post-occlusion, mice were injected daily with 350 mg/kg of Apo-transferrin (i.p.) or an equal volume of saline for a total of seven days, as well as with 50 mg/kg Bromodeoxyuridine (BrdU; Sigma-Aldrich Chemical, St. Louis, Mo.), both articles delivered by intraperitoneal administration. Weight changes were monitored daily.
Mice were prepared as indicated in Example 9 above and were subjected to assessments at 3 days and 1, 2, 3, 4 weeks post-MCAo, as indicated (n=8-10 animals/group). Motor coordination (i.e. equilibrium behavior and locomotor ability as a function of cortico-striatal function) was assessed using a rotarod test. Learning and memory capacity were measured using the NORT (novel object recognition test; for example, Anglada-Huguet et al., 2014, Molecular Neurobiology, vol. 49, pages 784-795; Denninger et al., 2018, J. Vis. Exp., vol. 141, e58593).
The time that it takes an animal to fall (Latency to fall) from the rotarod is shown vs time after MCAo. The motor skills of the mice reflect those of the neuroscore in FIG. 10A, with an increased rate of improvement in motor/balance skills, as measured by the amount of time animals stayed on the rotarod apparatus. […] The Discrimination (%) is a description of an animal's memory, as measured by the percentage of time in which an animal investigates newly presented objects compared to the time they investigate previously presented objects. Animals with better cognition and memory spend more time with the novel object due to memories of the object previously presented to the animal; this is shown as increased % Discrimination.

HIF-1α = conditions: reported in US2016008437; cited from earlier work

## apo-transferrin: iron-free form of transferrin protein, obtained and purified from pooled human plasma
SH-SY5Y cells; FIG. 1B, up to 0.8 mg/mL
  cell numbers (cell proliferation): induces a concentration-dependent increase in cell numbers
SH-SY5Y cells; FIG. 1C, 0.1 mg/mL
  cell proliferation, visual comparison to untreated control: profound effect on promoting cell proliferation
[1]
  Iron Saturation (%): < 0.3%
[2]
  learning recognition / Discrimination (%) in NORT: higher cognition
[2]; listed as ApoTf
  learning recognition / Discrimination (%) in NORT: increases learning recognition functions
[2]; listed as apoTf
  learning recognition / Discrimination (%) in NORT: higher ‘percent Discrimination’
HIF-1α
  HIF-1α production: can induce HIF-1α production
